{
  "source": "BindingDB's records for patent US11912682",
  "about": "(Monte Rosa Therapeutics, 2024)",
  "target": "Protein cereblon (Homo sapiens, UniProt Q96SW2)",
  "sequence (Q96SW2 whole entry)": "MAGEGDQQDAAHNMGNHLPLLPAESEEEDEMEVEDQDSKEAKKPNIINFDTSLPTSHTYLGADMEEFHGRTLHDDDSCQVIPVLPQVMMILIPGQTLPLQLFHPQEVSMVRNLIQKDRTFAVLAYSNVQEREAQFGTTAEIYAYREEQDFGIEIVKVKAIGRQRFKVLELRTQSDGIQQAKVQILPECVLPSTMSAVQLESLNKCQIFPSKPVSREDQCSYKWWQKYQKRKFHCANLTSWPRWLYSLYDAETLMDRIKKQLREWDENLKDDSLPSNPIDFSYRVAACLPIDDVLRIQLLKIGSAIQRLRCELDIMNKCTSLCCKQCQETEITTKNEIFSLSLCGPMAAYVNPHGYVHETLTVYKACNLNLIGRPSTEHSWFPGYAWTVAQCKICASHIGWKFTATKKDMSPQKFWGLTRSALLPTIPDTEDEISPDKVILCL",
  "experiment": "Compound Activity by Fluorescent Polarization Assay",
  "description": "Compound activity was monitored in a fluorescence polarization (FP) homogeneous assay using 1-[5-({2-[2-(2-{[2-(2,6-dioxopiperidin-3-yl)-1,3-dioxo-2,3-dihydro-1H-isoindol-4-yl]oxy}acetamido)ethoxy]ethyl}carbamoyl)pentyl]-3,3-dimethyl-2-[(1E,3E)-5-[(2E)-1,3,3-trimethyl-5-sulfo-2,3-dihydro-1H-indol-2-ylidene]penta-1,3-dien-1-yl]-3H-indol-1-ium-5-sulfonate as a fluorescent probe. Unless otherwise stated, all reagents were purchased from Sigma Aldrich. Enzymatic reactions were conducted in Perkin-Elmer Black 384 well ProxiPlate Plus (catalogue no. 6008269) in 10 μL total volume. Full length wild-type cereblon CRBN (80.0 nM, 10 μL) was incubated in assay buffer containing 20 mM HEPES (pH 8.0), […], 0.5 mM TCEP and 0.05% Tween 20 in the presence or absence of compound (300 nL). Inhibitors were stored as 10 mM DMSO stocks in an inert environment (low humidity, dark, low oxygen, room temperature) using the Storage Pod System. Compounds and DMSO were dispensed using the Echo ESXX (Labcyte Inc. USA) to give concentrations from 300 to 0.937 or 3000 to 9.3 nM in a 12 data point curve. […] FP was measured after a period of 12 hours using a Pherastar plate reader (BMG Labtech, Germany) exciting at 590 nm and measuring the amount of parallel and perpendicular light at 675 nm. […]",
  "data": [
    {"smiles": "O=C1CCC(N2Cc3ccc(COC(=O)Nc4cc(Cl)cc(OC(F)(F)F)c4)cc3C2=O)C(=O)N1", "note": "(stereo unspecified) [US11912682, Compound 11]", "values": [
      {"measurement": "IC50", "value": "> 1700", "unit": "nM"}
    ]}
  ]
}
